Patent US20040248300A1, “Enhanced gene expression using vectors” (priority 2001, published 2004)

Tested on: human foetal foreskin fibroblasts (HFFF2)
Assay: Responsiveness of the in1360 genome to Trichostatin A: β-galactosidase activity in infected HFFF2 cells
Type: cell-based
Experimental: Trichostatin A (TSA) is an agent that inhibits deacetylases. When it is added to cells, histones and other proteins involved in transcriptions become hyperacetylated, because they are not deacetylated. This frequently results in activation of gene expression. In the case of HSV-1 mutants, the genome is not responsive to TSA once the quiescent state has been established. Monolayers of HFFF2 cells were infected with in1360 and maintained at 38.5° C. At 8 days after infection, cells were either untreated or treated with 660 nM TSA. After maintenance at 38.5° C. for a further 2 days, extracts were made and β-galactosidase activities were measured. The extracts from untreated cells gave a value of 121 units (range 113-129), whereas extracts from TSA-treated cells gave a value of 806 unites (range 739-873), a stimulation of 6.7-fold.

With CC(/C=C/C(=O)NO)=C\[C@@H](C)C(=O)c1ccc(N(C)C)cc1 [TSA, Trichostatin A] the “β-galactosidase activity, extracts from TSA-treated cells” value (660 nM TSA added 8 days after infection, a further 2 days at 38.5° C., range 739-873) was 806 unites, the “effect of TSA on X-gal stained cells (in words)” value (660 nM TSA for 2 days, 10 days after infection) was “increased the number of positive cells and the intensity of straining” and the “stimulation of β-galactosidase activity by TSA” value (660 nM TSA versus untreated) was 6.7 fold.
